# Source: patent publication US11738097B2, “Curcuminoid chemotherapeutic drug carrier composition” (Imam Abdulrahman Bin Faisal University, priority 2018, dated 2023)
# Columns and labels:
# [1] = Cell viability MTT assay; assay type: cell-based, human; conditions: human, MCF7 cells, maintained throughout the different concentrations (10-100 μg/ml), curcumin stock 390 μg/ml
# Experimental: (§1) Materials and Methods/Cell cultures: In this study, a human mammary adenocarcinoma cell line, MCF7, was used for in vitro testing. MCF7 cells were maintained in DMEM (Dulbecco's Modified Eagle Medium) (Gibco, life technologies) supplemented with 10% heat inactivated fetal bovine serum (HI-FBS) (Gibco, life technology), 1% Penicillin Streptomycin (100×-Gibco, life technology), and 1% MEM NEAA (MEM non-essential amino acids) (100×-Gibco, life technology). Cells were kept in a humidified incubator at 37° C. with 5% CO2. For the experimental setup, MCF7 cells were seeded on a 96-well plate at a density of 10,000 cells/well. On the next day, cells were shifted to the starve media (0.5% HI-FBS containing media) for 24 h before treatment. […]
# (§2) Cell viability MTT Assay: The viability of cells was tested using 3-(4,5-dimethylthiazol-2-yl)-2,5-diphenyltetrazolium bromide (MTT) assay. […] The change in color intensity was measured at 570 nm wavelength using SYNERGY-neo2 BioTek ELISA reader. […] The reading of each triplicate was averaged and subtracted from the averaged MTT background control reading. […]
# (§3) To investigate the cytotoxic effects of curcumin-loaded/Fe2O3 impregnated mesocellular foam silica nanoparticles, the inventors assessed cell viability using the MTT assay on MCF7 cells. […]
# [2] = tested on: MCF7 cells; assay: Cell viability MTT assay; assay type: cell-based, human; conditions: 10, 20, 40, 80, 100 μg/ml, 24 h
# Experimental: as §1, §2, §3
smiles,measurement,setting,value
COc1cc(/C=C/C(=O)CC(=O)/C=C/c2ccc(O)c(OC)c2)ccc1O [Curcumin],viability at 24 h,[1],66.6%
same,effect on cell viability (in words),[2],significantly reduced cell viability
